Ki data for 34 compounds are collected here from patent US8163740B2, “6-substituted benzoxazines” (Hoffmann-La Roche Inc., priority 2008, dated 2012).

What is called Ki is a dissociation constant, usually derived from enzyme kinetics or from competition with a known ligand.

For the test, the target named is recombinant human 5-HT5A receptor (Homo sapiens, UniProt P47898). Put plainly: [3H]LSD radioligand binding assay. Particulars: [3H]LSD (approximately 1 nM); membranes from HEK-EBNA cells transiently expressing 5-HT5A; Ki by Cheng-Prussoff equation; read-out: Ki. The protocol: A [^3H]LSD radioligand binding assay was used to determine the affinity of the compounds for the recombinant human 5-HT5A receptor, in membranes from transiently (cDNA) expressed 5-HT5A receptors in Human Embryonic Kidney-EBNA (HEK-EBNA) cells. Assay buffer consisted of Tris (50 mM) buffer containing 1 mM EGTA, 10 mM MgCl2 (pH 7.4) and 10 μM pargyline. The binding assay was carried out in 96-well-plates in the presence of [^3H]LSD (approximately 1 nM), approximately 2 μg/well of membrane protein, and 0.5 mg of Ysi-poly-1-lysine SPA beads in a final volume of 200 μl of buffer. Non-specific binding was defined using methiothepin 2 μM. Compounds were tested at 10 concentrations. All assays were conducted in duplicate and repeated at least two times. Assay plates were incubated for 120 min at room temperature before centrifugation. Bound ligand was determined using a Packard Topcount scintillation counter. IC50 values were calculated using a non-linear curve fitting program and Ki values calculated using the Cheng-Prussoff equation.
Chain of recombinant human 5-HT5A receptor (P47898 whole entry): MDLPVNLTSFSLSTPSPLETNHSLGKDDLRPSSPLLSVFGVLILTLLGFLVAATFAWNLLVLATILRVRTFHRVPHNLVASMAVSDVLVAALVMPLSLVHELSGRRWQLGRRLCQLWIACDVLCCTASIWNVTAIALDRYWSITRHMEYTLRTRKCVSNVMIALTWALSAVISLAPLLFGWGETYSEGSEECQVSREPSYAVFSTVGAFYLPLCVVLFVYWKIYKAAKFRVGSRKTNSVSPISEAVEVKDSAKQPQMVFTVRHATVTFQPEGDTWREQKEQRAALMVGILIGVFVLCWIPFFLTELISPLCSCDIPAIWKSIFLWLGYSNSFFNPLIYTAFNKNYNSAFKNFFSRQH
As for `COc1ccccc1CNC1=Nc2ccc(NC(=O)CN3CCN(C(C)C)CC3)cc2CO1` [Example 29, 2-(4-Isopropyl-piperazin-1-yl)-N-[2-(2-methoxy-benzylamino)-4H-benzo[d][1,3]oxazin-6-yl]-acetamide], the inhibition constant Ki worked out at 10.9 nM.

Regarding `O=S(=O)(Nc1ccc2c(c1)COC(N[C@@H]1CCc3ccccc31)=N2)N1CCCCC1` [Example 30, Piperidine-1-sulfonic acid [2-((R)-indan-1-ylamino)-4H-benzo[d][1,3]oxazin-6-yl]-amide], the Ki turned out to be 4.2 nM.

As for `O=S(=O)(Nc1ccc2c(c1)COC(N[C@@H]1CCc3ccccc31)=N2)N1CCOCC1` [Example 31, Morpholine-4-sulfonic acid [2-((R)-indan-1-ylamino)-4H-benzo[d][1,3]oxazin-6-yl]-amide], the inhibition constant Ki came out at 4.38 nM.

Regarding `Nc1ccc2c(c1)COC(N[C@@H]1CCCc3ccccc31)=N2` [Example 33, (R)-N^2-(1,2,3,4-Tetrahydro-naphthalen-1-yl)-4H-benzo[d][1,3]oxazine-2,6-diamine], the Ki came out at 7.85 nM.

Turning to `FC(F)(F)c1cccc(Nc2ccc3c(c2)COC(N[C@@H]2CCc4ccccc42)=N3)n1` [Example 35, N^2-(R)-Indan-1-yl-N^6-(6-trifluoromethyl-pyridin-2-yl)-4H-benzo[d][1,3]oxazine-2,6-diamine], the inhibition constant (Ki) stood at 6.16 nM.

Turning to `O=C(CN1CCOCC1)Nc1ccc2c(c1)COC(N[C@@H]1CCc3ccccc31)=N2` [Example 37, N-[2-((R)-Indan-1-ylamino)-4H-benzo[d][1,3]oxazin-6-yl]-2-morpholin-4-yl-acetamide], the Ki stood at 8.74 nM.

For the compound `CN1CCN(CC(=O)Nc2ccc3c(c2)COC(N[C@@H]2CCCc4ccccc42)=N3)CC1` [Example 38, 2-(4-Methyl-piperazin-1-yl)-N-{2-[(R)-(1,2,3,4-tetrahydro-naphthalen-1-yl)amino]-4H-benzo[d][1,3]oxazin-6-yl}-acetamide], the Ki was 3.16 nM.

For `O=C(CN1CCOCC1)Nc1ccc2c(c1)COC(N[C@@H]1CCCc3ccccc31)=N2` [Example 39, 2-Morpholin-4-yl-N-{2-[(R)-(1,2,3,4-tetrahydro-naphthalen-1-yl)amino]-4H-benzo[d][1,3]oxazin-6-yl}-acetamide], the Ki turned out to be 22.8 nM.

As for `COCCNCC(=O)Nc1ccc2c(c1)COC(N[C@@H]1CCCc3ccccc31)=N2` [Example 40, 2-(2-Methoxy-ethylamino)-N-{2-[(R)-(1,2,3,4-tetrahydro-naphthalen-1-yl)amino]-4H-benzo[d][1,3]oxazin-6-yl}-acetamide], the inhibition constant Ki is 33 nM.

As to `CC(C)(O)CNCC(=O)Nc1ccc2c(c1)COC(N[C@@H]1CCCc3ccccc31)=N2` [Example 41, 2-(2-Hydroxy-2-methyl-propylamino)-N-{2-[(R)-(1,2,3,4-tetrahydro-naphthalen-1-yl)amino]-4H-benzo[d][1,3]oxazin-6-yl}-acetamide], the Ki came to 33 nM.

For `FC(F)(F)c1ccnc(Nc2ccc3c(c2)COC(N[C@@H]2CCc4ccccc42)=N3)n1` [Example 46, N^2-(R)-Indan-1-yl-N^6-(4-trifluoromethyl-pyrimidin-2-yl)-4H-benzo[d][1,3]oxazine-2,6-diamine], the Ki was found to be 7.1 nM.

`Cc1cc(C)nc(Nc2ccc3c(c2)COC(N[C@@H]2CCc4ccccc42)=N3)n1` [Example 47, N^6-(4,6-Dimethyl-pyrimidin-2-yl)-N^2-(R)-indan-1-yl-4H-benzo[d][1,3]oxazine-2,6-diamine]: the inhibition constant Ki turned out to be 3.56 nM.

Turning to `CC(=O)Nc1ccc2c(c1)COC(N[C@@H]1CCc3ccccc31)=N2` [Example 48, N-[2-((R)-Indan-1-ylamino)-4H-benzo[d][1,3]oxazin-6-yl]-acetamide], the Ki came to 3.63 nM.

With `O=C(CN1CCSCC1)Nc1ccc2c(c1)COC(N[C@@H]1CCc3ccccc31)=N2` [Example 65, N-[2-((R)-Indan-1-ylamino)-4H-benzo[d][1,3]oxazin-6-yl]-2-thiomorpholin-4-yl-acetamide], the Ki turned out to be 7.62 nM.

For `O=C(CN1CCS(=O)(=O)CC1)Nc1ccc2c(c1)COC(N[C@@H]1CCc3ccccc31)=N2` [Example 66, 2-(1,1-Dioxo-1λ^6-thiomorpholin-4-yl)-N-[2-((R)-indan-1-ylamino)-4H-benzo[d][1,3]oxazin-6-yl]-acetamide], the Ki amounted to 16 nM.

On to `O=C(Cn1ccnc1)Nc1ccc2c(c1)COC(N[C@@H]1CCc3ccccc31)=N2` [Example 67, 2-Imidazol-1-yl-N-[2-((R)-indan-1-ylamino)-4H-benzo[d][1,3]oxazin-6-yl]-acetamide], for which the inhibition constant (Ki) came to 7.42 nM.

With `CC(C)(O)CNCC(=O)Nc1ccc2c(c1)COC(N[C@@H]1CCc3ccccc31)=N2` [Example 68, 2-(2-Hydroxy-2-methyl-propylamino)-N-[2-((R)-indan-1-ylamino)-4H-benzo[d][1,3]oxazin-6-yl]-acetamide], the Ki is 9.23 nM.

`COCCNCC(=O)Nc1ccc2c(c1)COC(N[C@@H]1CCc3ccccc31)=N2` [Example 69, N-[2-((R)-Indan-1-ylamino)-4H-benzo[d][1,3]oxazin-6-yl]-2-(2-methoxy-ethylamino)-acetamide]: the inhibition constant Ki came to 8.34 nM.

On to `O=C(CN1CCN(CC(F)(F)F)CC1)Nc1ccc2c(c1)COC(N[C@@H]1CCc3ccccc31)=N2` [Example 70, N-[2-((R)-Indan-1-ylamino)-4H-benzo[d][1,3]oxazin-6-yl]-2-[4-(2,2,2-trifluoro-ethyl)-piperazin-1-yl]-acetamide], for which the Ki came to 33 nM.

As to `CN1CCN(S(=O)(=O)Nc2ccc3c(c2)COC(N[C@@H]2CCCc4ccccc42)=N3)CC1` [Example 71, 4-Methyl-piperazine-1-sulfonic acid {2-[(R)-(1,2,3,4-tetrahydro-naphthalen-1-yl)amino]-4H-benzo[d][1,3]oxazin-6-yl}-amide], the inhibitory constant (Ki) was 138 nM.

With `CN1CCN(S(=O)(=O)Nc2ccc3c(c2)COC(N[C@@H]2CCc4ccccc42)=N3)CC1` [Example 72, 4-Methyl-piperazine-1-sulfonic acid [2-((R)-indan-1-ylamino)-4H-benzo[d][1,3]oxazin-6-yl]-amide], the Ki is 28.6 nM.

Regarding `CC(C)N1C2CCC1CC(NCC(=O)Nc1ccc3c(c1)COC(N[C@@H]1CCCc4ccccc41)=N3)C2` (stereo partly drawn) [Example 73, 2-((exo)-8-Isopropyl-8-aza-bicyclo[3.2.1]oct-3-ylamino)-N-{2-[(R)-(1,2,3,4-tetrahydro-naphthalen-1-yl)amino]-4H-benzo[d][1,3]oxazin-6-yl}-acetamide], the Ki stood at 61.3 nM.

Turning to `CC(C)N1C2CCC1CC(NCC(=O)Nc1ccc3c(c1)COC(N[C@@H]1CCc4ccccc41)=N3)C2` (stereo partly drawn) [Example 76, N-[2-((R)-Indan-1-ylamino)-4H-benzo[d][1,3]oxazin-6-yl]-2-((exo)-8-isopropyl-8-aza-bicyclo[3.2.1]oct-3-ylamino)-acetamide], the Ki is 13.5 nM.

For the compound `Cc1ccc(CNC2=Nc3ccc(N)cc3CO2)o1` [Example 77, N^2-(5-Methyl-furan-2-ylmethyl)-4H-benzo[d][1,3]oxazine-2,6-diamine], the Ki worked out at 13.5 nM.

Turning to `CS(=O)(=O)Nc1ccc2c(c1)COC(N[C@@H]1CCc3ccccc31)=N2` [Example 78, N-[2-((R)-Indan-1-ylamino)-4H-benzo[d][1,3]oxazin-6-yl]-methanesulfonamide], the Ki came out at 4.44 nM.

Turning to `O=S(=O)(Nc1ccc2c(c1)COC(N[C@@H]1CCc3ccccc31)=N2)C1CC1` [Example 79, Cyclopropanesulfonic acid [2-((R)-indan-1-ylamino)-4H-benzo[d][1,3]oxazin-6-yl]-amide], the Ki came out at 1.81 nM.

For `Cc1ccc(CNC2=Nc3ccc(NC(=O)C4CC4)cc3CO2)o1` [Example 82, Cyclopropanecarboxylic acid {2-[(5-methyl-furan-2-ylmethyl)-amino]-4H-benzo[d][1,3]oxazin-6-yl}-amide], the Ki is 11.7 nM.

For the compound `O=S(=O)(Nc1ccc2c(c1)COC(N[C@@H]1CCc3ccccc31)=N2)c1ccccc1` [Example 83, N-[2-((R)-Indan-1-ylamino)-4H-benzo[d][1,3]oxazin-6-yl]-benzenesulfonamide], the inhibitory constant (Ki) amounted to 3.69 nM.

`Cc1ccc(CNC2=Nc3ccc(NC(=O)CN4CCN(C)CC4)cc3CO2)o1` [Example 84, N-{2-[(5-Methyl-furan-2-ylmethyl)-amino]-4H-benzo[d][1,3]oxazin-6-yl}-2-(4-methyl-piperazin-1-yl)-acetamide]: the Ki is 26.8 nM.

`Cc1ccc(CNC2=Nc3ccc(NC(=O)CN4CCOCC4)cc3CO2)o1` [Example 85, N-{2-[(5-Methyl-furan-2-ylmethyl)-amino]-4H-benzo[d][1,3]oxazin-6-yl}-2-morpholin-4-yl-acetamide]: the Ki was determined as 251 nM.

For `Nc1ccc2c(c1)COC(NCCOc1ccccc1)=N2` [Example 87, N^2-(2-Phenoxy-ethyl)-4H-benzo[d][1,3]oxazine-2,6-diamine], the Ki was determined as 3.6 nM.

For `c1cncc(CNc2ccc3c(c2)COC(N[C@@H]2CCc4ccccc42)=N3)c1` [Example 88, N^2—(R)-Indan-1-yl-N^6-pyridin-3-ylmethyl-4H-benzo[d][1,3]oxazine-2,6-diamine], the inhibitory constant (Ki) came out at 1.68 nM.

In the case of `c1ccc2c(c1)CC[C@H]2NC1=Nc2ccc(NCc3nccs3)cc2CO1` [Example 89, N^2—(R)-Indan-1-yl-N^6-thiazol-2-ylmethyl-4H-benzo[d][1,3]oxazine-2,6-diamine], the Ki worked out at 1.18 nM.

As for `Nc1ccc2c(c1)COC(NC1CCCCCC1)=N2` [Example 92, N^2-Cycloheptyl-4H-benzo[d][1,3]oxazine-2,6-diamine], the inhibition constant Ki came out at 16.7 nM.
